Results on two compounds are retold here after PMC10390775, “CETP inhibitor evacetrapib enters mouse brain tissue” (Frontiers in Pharmacology, 2023).

Some results are limits rather than exact numbers.

The conditions of series [1]: ref Krishna et al., 2017; cited from earlier work.
On the set-up of series [2]: method as in Takubo et al., 2014. The settings on record: rats; ref Takubo et al., 2014; cited from earlier work.
Series [3] in a line: Dalcetrapib brain distribution in rats after i.v. dosing, compared with evacetrapib in mice. The format is in vivo. As to conditions: rats 10 mg/kg BW dalcetrapib i.v. vs mice 40 mg/kg BW evacetrapib, ref Takubo et al., 2014.

For `COc1cc(F)c(C(C)C)cc1-c1ccc(C(F)(F)F)cc1CN1C(=O)O[C@H](c2cc(C(F)(F)F)cc(C(F)(F)F)c2)[C@@H]1C` [anacetrapib], the “Accumulation in adipose tissues” value in series [1] is on record as “accumulate in adipose tissues”.

For `CCC(CC)CC1(C(=O)Nc2ccccc2SC(=O)C(C)C)CCCCC1` [dalcetrapib], in series [2], the “Crossing of the blood–brain barrier” value is listed as “capacity to cross the blood–brain barrier of rats”. Further, the “Dalcetrapib brain concentration relative to evacetrapib concentration” value in series [3] (0.5 h after injection) is on record as “twofold lower”; in series [3] (24 h after injection) it was above 20 fold.
